# In ChEMBL document CHEMBL1154056, “Synthesis, characterization, antimicrobial and antitumor screening of some diorganotin(IV) complexes of 2-[(9H-Purin-6-ylimino)]-phenol” (Eur J Med Chem, 2009):
# How the values were obtained:
# Bacillus subtilis [1] = test: Antibacterial activity against Bacillus subtilis at 2 mg by agar well diffusion assay relative to imipenem; format: functional
# Salmonella typhi [2] = test: Antibacterial activity against Salmonella typhi; format: functional, Salmonella enterica subsp. enterica serovar Typhi; details: Salmonella enterica
# Staphylococcus aureus = test: Antibacterial activity against Staphylococcus aureus; format: functional
# Escherichia coli [3] = test: Antibacterial activity against Escherichia coli; format: functional
# Salmonella typhi [4] = test: Antibacterial activity against Salmonella typhi at 2 mg by agar well diffusion assay relative to imipenem; format: functional, Salmonella enterica subsp. enterica serovar Typhi
# Bacillus subtilis [5] = test: Antibacterial activity against Bacillus subtilis; format: functional
# Aspergillus flavus [6] = test: Antifungal activity against Aspergillus flavus assessed as growth inhibition at 50 mg after 72 hrs by dilution plate method; format: functional
# Pseudomonas aeruginosa = test: Antibacterial activity against Pseudomonas aeruginosa; format: functional
# Fusarium oxysporum = test: Antifungal activity against Fusarium oxysporum assessed as growth inhibition at 50 mg after 72 hrs by dilution plate method; format: functional
# Escherichia coli [7] = test: Antibacterial activity against Escherichia coli at 2 mg by agar well diffusion assay relative to imipenem; format: functional
# Aspergillus niger = test: Antifungal activity against Aspergillus niger assessed as growth inhibition at 50 mg after 72 hrs dilution plate method; format: functional
# Aspergillus flavus [8] = test: Antifungal activity against Aspergillus flavus at 50 mg after 72 hrs by dilution plate method; format: functional; details: read-out: IZ
smiles,measurement,setting,value
OC1=CC=CC/C1=N\c1ncnc2[nH]cnc12,inhibition (INH),Bacillus subtilis [1],30%
same,MIC,Salmonella typhi [2],64 µg/mL
same,MIC,Staphylococcus aureus,128 µg/mL
same,MIC,Escherichia coli [3],64 µg/mL
same,inhibition (INH),Salmonella typhi [4],10%
same,MIC,Bacillus subtilis [5],128 µg/mL
same,inhibition (INH),Aspergillus flavus [6],10%
same,MIC,Pseudomonas aeruginosa,64 µg/mL
same,inhibition (INH),Fusarium oxysporum,12%
same,inhibition (INH),Escherichia coli [7],10%
same,inhibition (INH),Aspergillus niger,8%
same,zone of inhibition at 50000 µg/disc,Aspergillus flavus [8],8 mm
